This passage reports Kd results from ChEMBL document CHEMBL3991601, “The target landscape of clinical kinase drugs” (Science, 2017).

Assay [1] deals with T1, Ephrin type-A receptor 1 (Homo sapiens, UniProt P21709).
T1 sequence (P21709 whole entry): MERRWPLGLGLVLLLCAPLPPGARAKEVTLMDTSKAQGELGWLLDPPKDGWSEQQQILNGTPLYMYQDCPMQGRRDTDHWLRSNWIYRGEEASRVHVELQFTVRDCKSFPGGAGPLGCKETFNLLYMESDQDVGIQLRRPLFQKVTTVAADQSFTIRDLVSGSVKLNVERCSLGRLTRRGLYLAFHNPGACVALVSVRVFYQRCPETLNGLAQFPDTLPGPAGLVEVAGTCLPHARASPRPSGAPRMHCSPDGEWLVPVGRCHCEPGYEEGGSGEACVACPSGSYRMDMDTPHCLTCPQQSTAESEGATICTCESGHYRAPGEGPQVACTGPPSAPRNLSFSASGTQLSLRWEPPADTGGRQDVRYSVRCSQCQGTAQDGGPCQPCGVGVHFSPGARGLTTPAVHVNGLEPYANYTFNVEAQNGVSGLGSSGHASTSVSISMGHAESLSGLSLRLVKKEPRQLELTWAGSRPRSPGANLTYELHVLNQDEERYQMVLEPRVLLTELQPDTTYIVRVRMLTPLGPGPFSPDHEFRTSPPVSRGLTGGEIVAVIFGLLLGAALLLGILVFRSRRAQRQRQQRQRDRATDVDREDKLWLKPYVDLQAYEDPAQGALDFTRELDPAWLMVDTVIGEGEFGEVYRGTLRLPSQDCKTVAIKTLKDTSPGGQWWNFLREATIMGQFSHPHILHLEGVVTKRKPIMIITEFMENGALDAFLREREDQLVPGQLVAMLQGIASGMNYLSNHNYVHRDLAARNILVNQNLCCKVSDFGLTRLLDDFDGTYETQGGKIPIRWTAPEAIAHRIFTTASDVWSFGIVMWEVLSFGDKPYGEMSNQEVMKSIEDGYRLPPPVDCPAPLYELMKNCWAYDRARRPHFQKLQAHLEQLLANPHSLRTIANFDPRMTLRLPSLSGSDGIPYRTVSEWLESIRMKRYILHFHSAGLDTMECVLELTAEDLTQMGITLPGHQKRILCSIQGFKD

In assay [2] the target is Mitogen-activated protein kinase 14 (Homo sapiens, UniProt Q16539).
Chain of Mitogen-activated protein kinase 14 (Q16539 whole entry): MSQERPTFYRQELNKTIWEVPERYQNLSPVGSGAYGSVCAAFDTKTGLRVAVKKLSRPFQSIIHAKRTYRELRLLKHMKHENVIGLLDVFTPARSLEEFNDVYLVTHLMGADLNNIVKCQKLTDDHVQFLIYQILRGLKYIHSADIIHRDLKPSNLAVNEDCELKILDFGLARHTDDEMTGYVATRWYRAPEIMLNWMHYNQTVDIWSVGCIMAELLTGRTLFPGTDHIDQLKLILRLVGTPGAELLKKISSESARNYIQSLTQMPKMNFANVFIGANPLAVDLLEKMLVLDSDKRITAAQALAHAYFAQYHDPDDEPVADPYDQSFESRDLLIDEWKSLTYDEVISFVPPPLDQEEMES
Assay [3] has as its target T2, Tyrosine-protein kinase Tec (Homo sapiens, UniProt P42680).
T2 sequence (P42680 whole entry): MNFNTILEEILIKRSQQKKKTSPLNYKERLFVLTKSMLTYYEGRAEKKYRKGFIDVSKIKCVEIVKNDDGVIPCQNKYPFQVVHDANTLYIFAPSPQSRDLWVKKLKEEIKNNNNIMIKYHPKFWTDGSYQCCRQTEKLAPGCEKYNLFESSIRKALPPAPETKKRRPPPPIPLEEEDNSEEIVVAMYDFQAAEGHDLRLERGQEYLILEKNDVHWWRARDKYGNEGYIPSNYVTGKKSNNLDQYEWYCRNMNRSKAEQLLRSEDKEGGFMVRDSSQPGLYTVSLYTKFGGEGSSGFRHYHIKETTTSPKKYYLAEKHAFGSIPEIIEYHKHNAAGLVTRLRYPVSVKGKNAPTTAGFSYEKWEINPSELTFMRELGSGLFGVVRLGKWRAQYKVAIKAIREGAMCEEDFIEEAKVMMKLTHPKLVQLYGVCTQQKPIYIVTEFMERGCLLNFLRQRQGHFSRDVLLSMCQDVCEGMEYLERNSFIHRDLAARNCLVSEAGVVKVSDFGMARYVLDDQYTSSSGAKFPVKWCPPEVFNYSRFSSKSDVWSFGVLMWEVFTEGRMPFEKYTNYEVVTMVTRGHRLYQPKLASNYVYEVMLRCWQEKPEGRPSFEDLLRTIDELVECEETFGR

For assay [4], the target named is T3, Tyrosine--tRNA ligase, cytoplasmic (Homo sapiens, UniProt P54577).
T3 sequence (P54577 whole entry): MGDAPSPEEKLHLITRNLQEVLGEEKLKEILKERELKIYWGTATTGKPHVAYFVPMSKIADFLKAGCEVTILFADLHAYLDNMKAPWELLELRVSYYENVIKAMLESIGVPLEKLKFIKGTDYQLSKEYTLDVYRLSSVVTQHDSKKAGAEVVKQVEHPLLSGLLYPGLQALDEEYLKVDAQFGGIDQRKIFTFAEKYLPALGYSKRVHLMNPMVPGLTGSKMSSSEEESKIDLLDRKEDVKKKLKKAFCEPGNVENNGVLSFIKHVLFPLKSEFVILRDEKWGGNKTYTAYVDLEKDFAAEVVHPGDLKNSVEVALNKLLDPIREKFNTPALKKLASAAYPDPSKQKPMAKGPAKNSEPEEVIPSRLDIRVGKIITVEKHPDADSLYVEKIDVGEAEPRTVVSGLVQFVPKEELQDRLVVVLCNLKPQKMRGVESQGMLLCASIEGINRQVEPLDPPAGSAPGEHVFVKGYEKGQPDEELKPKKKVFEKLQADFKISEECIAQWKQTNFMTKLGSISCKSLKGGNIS

The target in assay [5] is Mitogen-activated protein kinase kinase kinase kinase 5 (Homo sapiens, UniProt Q9Y4K4).
Chain of Mitogen-activated protein kinase kinase kinase kinase 5 (Q9Y4K4 whole entry): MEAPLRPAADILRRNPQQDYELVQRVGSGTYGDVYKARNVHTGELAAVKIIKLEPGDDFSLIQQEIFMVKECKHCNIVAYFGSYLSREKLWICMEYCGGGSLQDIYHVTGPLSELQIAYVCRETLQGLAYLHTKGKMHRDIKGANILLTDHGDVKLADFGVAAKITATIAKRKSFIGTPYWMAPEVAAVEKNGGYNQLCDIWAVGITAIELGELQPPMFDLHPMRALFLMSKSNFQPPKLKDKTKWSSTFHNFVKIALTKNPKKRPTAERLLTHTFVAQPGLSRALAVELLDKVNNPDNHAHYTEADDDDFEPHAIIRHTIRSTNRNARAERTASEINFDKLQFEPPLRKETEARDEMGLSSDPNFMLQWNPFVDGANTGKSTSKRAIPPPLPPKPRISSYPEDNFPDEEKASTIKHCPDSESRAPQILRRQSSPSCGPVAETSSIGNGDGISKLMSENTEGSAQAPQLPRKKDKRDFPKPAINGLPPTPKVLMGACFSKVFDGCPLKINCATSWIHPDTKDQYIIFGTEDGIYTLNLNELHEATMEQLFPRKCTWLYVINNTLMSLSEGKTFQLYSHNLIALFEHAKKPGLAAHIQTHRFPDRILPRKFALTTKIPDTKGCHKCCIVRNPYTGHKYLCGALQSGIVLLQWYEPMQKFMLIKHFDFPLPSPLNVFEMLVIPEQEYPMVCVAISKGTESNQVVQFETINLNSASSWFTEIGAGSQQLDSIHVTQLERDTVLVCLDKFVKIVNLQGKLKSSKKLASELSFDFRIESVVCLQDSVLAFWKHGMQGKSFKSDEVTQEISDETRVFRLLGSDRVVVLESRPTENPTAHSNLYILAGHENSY
For assay [6], the target named is Serine/threonine-protein kinase MRCK beta (Homo sapiens, UniProt Q9Y5S2).
Chain of Serine/threonine-protein kinase MRCK beta (Q9Y5S2 whole entry): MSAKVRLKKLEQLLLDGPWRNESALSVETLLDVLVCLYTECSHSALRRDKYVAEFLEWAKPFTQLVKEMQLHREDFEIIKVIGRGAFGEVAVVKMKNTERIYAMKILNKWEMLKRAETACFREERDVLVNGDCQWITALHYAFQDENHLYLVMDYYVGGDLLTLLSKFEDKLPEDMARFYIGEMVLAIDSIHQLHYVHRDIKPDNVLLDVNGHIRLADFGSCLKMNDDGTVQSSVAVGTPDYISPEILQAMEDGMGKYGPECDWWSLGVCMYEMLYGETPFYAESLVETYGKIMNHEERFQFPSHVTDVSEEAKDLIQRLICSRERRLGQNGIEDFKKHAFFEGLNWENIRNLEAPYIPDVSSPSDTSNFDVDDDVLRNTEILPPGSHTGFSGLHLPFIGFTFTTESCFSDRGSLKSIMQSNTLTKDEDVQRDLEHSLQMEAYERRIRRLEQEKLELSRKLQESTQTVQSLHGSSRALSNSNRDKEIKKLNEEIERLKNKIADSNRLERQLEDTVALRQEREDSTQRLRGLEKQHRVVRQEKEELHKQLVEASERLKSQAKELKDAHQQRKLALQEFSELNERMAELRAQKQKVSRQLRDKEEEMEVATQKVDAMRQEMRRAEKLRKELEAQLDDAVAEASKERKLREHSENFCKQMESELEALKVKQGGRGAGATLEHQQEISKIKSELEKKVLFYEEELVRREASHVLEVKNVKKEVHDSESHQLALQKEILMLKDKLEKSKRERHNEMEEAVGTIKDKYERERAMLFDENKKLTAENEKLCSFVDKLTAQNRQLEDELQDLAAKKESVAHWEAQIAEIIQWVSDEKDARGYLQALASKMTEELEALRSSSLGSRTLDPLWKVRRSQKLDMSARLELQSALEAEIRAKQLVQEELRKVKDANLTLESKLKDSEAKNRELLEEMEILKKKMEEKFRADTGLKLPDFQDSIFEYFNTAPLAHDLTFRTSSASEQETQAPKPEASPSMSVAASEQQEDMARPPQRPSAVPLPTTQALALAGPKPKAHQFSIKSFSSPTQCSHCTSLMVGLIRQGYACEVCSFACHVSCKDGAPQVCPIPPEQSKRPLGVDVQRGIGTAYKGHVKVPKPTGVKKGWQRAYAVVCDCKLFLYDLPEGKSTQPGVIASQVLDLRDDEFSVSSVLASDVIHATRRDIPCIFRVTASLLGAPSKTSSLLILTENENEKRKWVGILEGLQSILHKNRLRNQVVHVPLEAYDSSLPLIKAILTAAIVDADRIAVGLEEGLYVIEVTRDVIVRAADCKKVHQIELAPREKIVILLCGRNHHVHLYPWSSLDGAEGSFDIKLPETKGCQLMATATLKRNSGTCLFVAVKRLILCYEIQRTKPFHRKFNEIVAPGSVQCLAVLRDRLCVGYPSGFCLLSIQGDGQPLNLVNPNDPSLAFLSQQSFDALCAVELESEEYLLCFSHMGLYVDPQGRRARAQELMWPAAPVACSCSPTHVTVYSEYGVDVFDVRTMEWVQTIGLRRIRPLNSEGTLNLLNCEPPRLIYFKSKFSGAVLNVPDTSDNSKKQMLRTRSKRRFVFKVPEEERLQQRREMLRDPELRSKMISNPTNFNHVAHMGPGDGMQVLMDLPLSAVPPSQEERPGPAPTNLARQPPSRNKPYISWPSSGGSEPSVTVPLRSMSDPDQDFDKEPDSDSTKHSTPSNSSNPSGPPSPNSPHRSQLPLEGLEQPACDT
In assay [7] the target is T4, NUAK family SNF1-like kinase 2 (Homo sapiens, UniProt Q9H093).
T4 sequence (Q9H093 whole entry): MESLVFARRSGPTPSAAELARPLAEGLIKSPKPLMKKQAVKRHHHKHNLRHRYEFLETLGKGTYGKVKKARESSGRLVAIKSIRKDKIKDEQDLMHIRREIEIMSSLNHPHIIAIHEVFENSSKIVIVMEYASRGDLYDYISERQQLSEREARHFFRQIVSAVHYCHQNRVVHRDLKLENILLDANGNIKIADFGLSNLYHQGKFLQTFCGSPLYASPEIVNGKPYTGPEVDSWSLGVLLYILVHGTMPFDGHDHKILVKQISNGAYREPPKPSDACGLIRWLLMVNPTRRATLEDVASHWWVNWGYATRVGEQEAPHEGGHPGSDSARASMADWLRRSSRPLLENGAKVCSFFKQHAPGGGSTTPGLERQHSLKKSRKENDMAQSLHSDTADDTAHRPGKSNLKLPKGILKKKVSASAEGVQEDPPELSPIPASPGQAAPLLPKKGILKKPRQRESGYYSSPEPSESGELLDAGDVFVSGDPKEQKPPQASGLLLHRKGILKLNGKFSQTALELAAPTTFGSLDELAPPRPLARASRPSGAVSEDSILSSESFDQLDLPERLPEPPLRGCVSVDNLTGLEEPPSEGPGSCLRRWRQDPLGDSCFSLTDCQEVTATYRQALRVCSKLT

pKd: −log10 of the molar value. Counter-ions that a name gives are not always drawn. Activity calls are given as the source filed them. Cut-off read from the data, not from the text of the source, for most assays here: actives have a measured Kd and inactives only a lower limit. Some results are limits rather than exact numbers.
Note: in the data inactive means no Kd found up to 30 µM.

On to `C[C@@H](Oc1cc(C(=O)Nc2ccc(C(=O)N3CCN(C)CC3)cc2)nnc1N)c1c(Cl)ccc(F)c1Cl`, for which the Kd in assay [1] was > 30 µM (inactive); in assay [2], > 30 µM (inactive); in assay [3], > 30 µM (inactive); in assay [4], > 30 µM (inactive); in assay [5] it was 20.9 µM (active); in assay [6], > 30 µM (inactive). In addition, the Kd in assay [7] is > 30 µM (inactive).

Take `C[C@H]1CNCCCN1S(=O)(=O)c1cccc2cncc(F)c12`: the Kd in assay [1], in assay [2], in assay [3], in assay [5], in assay [6] and in assay [7] was > 30 µM (inactive) each time.

Consider `CC(=O)c1cnc2ccc(-c3cc(Cl)c(O)c(Cl)c3)nc2c1N[C@H]1CC[C@H](CN(C)C)CC1`, for which the Kd in assay [1] is 0.091 µM (active); in assay [2], > 30 µM (inactive); in assay [3], > 30 µM (inactive); in assay [4], > 30 µM (inactive); in assay [5], 0.071 µM (active); in assay [6] it was > 30 µM (inactive). In assay [7], the Kd is > 30 µM (inactive).

As for `C=CC(=O)N1CCC[C@H](n2c(=O)n(-c3ccc(Oc4ccccc4)cc3)c3c(N)ncnc32)C1`, the Kd in assay [1], in assay [2], in assay [4], in assay [5], in assay [6] and in assay [7] was > 30 µM (inactive) each time. Moreover, in assay [3], the pKd is 8.22.

As to `Cc1nc2cc(-c3nn(C(C)C)c4ncnc(N)c34)ccc2o1`, the Kd in assay [1], in assay [2], in assay [3], in assay [4], in assay [5] and in assay [6] was > 30 µM (inactive) in each case. For the same molecule, the Kd in assay [7] was > 30 µM (inactive).

Take `COCc1c(-c2ccc(NC(=O)Nc3cc(C(F)(F)F)ccc3F)c(F)c2)c2c(N)ncnn2c1CN1CCOCC1`: the Kd in assay [1], in assay [2], in assay [3], in assay [4], in assay [5] and in assay [6] was > 30 µM (inactive) each time. The Kd in assay [7] is > 30 µM (inactive).

With `Nc1ncnc2c1c(-c1cccc(OCc3ccccc3)c1)cn2[C@H]1C[C@@H](CN2CCC2)C1` [AEW-541], the Kd in assay [1] is > 30 µM (inactive); in assay [2], > 30 µM (inactive); in assay [3], > 30 µM (inactive); in assay [4], > 30 µM (inactive); in assay [5], 2.49 µM (active); in assay [6], > 30 µM (inactive). In addition, in assay [7], the Kd is > 30 µM (inactive).

With `COc1cc(Nc2ncc3c(n2)-c2ccc(Cl)cc2C(c2c(F)cccc2OC)=NC3)ccc1C(=O)O` [ALISERTIB], the Kd in assay [1], in assay [3], in assay [4], in assay [6] and in assay [7] was > 30 µM (inactive) each time.

Turning to `CCS(=O)(=O)N1CCN(c2ccc(Nc3ncc(C(N)=O)c(NC4CC4)n3)cc2)CC1` [Cerdulatinib Hydrochloride], the Kd in assay [1] was > 30 µM (inactive); in assay [2] it was > 30 µM (inactive); in assay [3], > 30 µM (inactive); in assay [5], 19.2 µM (active); in assay [6], > 30 µM (inactive); in assay [7], > 30 µM (inactive).

Take `CC(C)(C)c1nc(-c2cccc(NS(=O)(=O)c3c(F)cccc3F)c2F)c(-c2ccnc(N)n2)s1` [DABRAFENIB]: the pKd in assay [1] was 6.15. Besides, the Kd in assay [3], in assay [4], in assay [5], in assay [6] and in assay [7] was > 30 µM (inactive) in each case.

Regarding `NC(=O)c1c(OCc2c(F)cc(Br)cc2F)nsc1NC(=O)NCCCCN1CCCC1` [OSI-632], the Kd in assay [1], in assay [3], in assay [4], in assay [6] and in assay [7] was > 30 µM (inactive) in each case.

On to `CCCCCCCCCCCCCCCCCCOP(=O)([O-])OC1CC[N+](C)(C)CC1` [PERIFOSINE], for which the Kd in assay [1], in assay [3], in assay [4], in assay [5], in assay [6] and in assay [7] was > 30 µM (inactive) each time.

With `CC(=O)NCC(=O)N1[C@@H]2CC[C@H]1c1ccc(Nc3ncc(C(F)(F)F)c(NC4CCC4)n3)cc12` [PF-03814735], the Kd in assay [1] is > 30 µM (inactive); in assay [3], 2.32 µM (active); in assay [4], > 30 µM (inactive); in assay [6] it was > 30 µM (inactive); in assay [7], 0.024 µM (active).

`C[C@@H](NC(=O)c1ncnc(N)c1Cl)c1ncc(C(=O)Nc2cc(C(F)(F)F)c(Cl)cn2)s1` [TOVORAFENIB] had a pKd in assay [1] of 5.97. The Kd is 0.358 µM (active) in assay [2]; > 30 µM (inactive) in assay [3]; > 30 µM (inactive) in assay [4]; > 30 µM (inactive) in assay [5]; > 30 µM (inactive) in assay [6].

For `C[C@@H](N)c1ccc(C(=O)Nc2ccnc3[nH]ccc23)cc1` [Y-39983], the Kd in assay [1] is > 30 µM (inactive); in assay [3], > 30 µM (inactive); in assay [4], > 30 µM (inactive); in assay [5], > 30 µM (inactive); in assay [6], 0.034 µM (active); in assay [7], > 30 µM (inactive).

The term Kd denotes the equilibrium constant for the complex coming apart. In general, pKd refers to the negative decadic logarithm of the Kd, by convention in mol/L. A low value points to a large Kd.
